Data: US12180192B2, “Modulators of THR-β and methods of use thereof” (ALIGOS THERAPEUTICS, INC., priority 2019, dated 2024)
Like-named read-outs stand apart in the source and are kept apart here.

Legend:
THR beta = target: T1, THR beta (Homo sapiens, UniProt P10828); assay: HEK293T THR beta/RXR luciferase reporter assay (Assay 2); assay type: cell-based; conditions: for Emax: HEK-293T
T1 construct: expressed in transfected cells; host or cells: HEK293T (ATCC CRL-3216)
T1 sequence (P10828 1-461): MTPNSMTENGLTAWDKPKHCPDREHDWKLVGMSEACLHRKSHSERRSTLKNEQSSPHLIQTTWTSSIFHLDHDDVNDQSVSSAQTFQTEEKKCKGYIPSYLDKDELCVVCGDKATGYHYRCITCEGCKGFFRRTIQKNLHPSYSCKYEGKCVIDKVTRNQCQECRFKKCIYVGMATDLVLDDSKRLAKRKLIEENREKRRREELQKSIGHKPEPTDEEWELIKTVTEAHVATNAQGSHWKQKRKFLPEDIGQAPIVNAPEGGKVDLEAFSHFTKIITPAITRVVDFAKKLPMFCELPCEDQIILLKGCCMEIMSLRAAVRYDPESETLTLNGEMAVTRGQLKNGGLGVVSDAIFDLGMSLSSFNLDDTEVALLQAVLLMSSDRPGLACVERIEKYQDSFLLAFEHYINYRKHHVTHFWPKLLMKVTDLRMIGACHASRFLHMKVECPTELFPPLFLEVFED
T1 sequence (P19793 1-462 partner): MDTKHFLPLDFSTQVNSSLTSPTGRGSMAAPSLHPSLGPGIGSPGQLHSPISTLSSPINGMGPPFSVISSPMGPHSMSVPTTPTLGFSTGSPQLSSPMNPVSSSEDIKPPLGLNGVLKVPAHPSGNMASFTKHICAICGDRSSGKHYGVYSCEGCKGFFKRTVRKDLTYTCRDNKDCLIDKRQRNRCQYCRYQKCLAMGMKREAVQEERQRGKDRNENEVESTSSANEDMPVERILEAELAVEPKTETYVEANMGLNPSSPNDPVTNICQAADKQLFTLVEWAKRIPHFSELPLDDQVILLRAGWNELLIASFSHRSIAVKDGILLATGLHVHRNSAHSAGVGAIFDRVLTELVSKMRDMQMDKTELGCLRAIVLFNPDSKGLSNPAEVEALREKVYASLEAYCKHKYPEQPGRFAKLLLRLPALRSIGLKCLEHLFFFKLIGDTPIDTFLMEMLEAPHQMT
In short: (§1)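 HEK293T cells transiently transfected with TRE-luciferase reporter, RXR, and THR alpha or THR beta plasmid; ten five-fold compound dilutions from DMSO added for 18-24 h. One-Glo luminescence read; percent agonism normalized between negative and positive controls.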

THR alpha = target: T2, THR alpha (Homo sapiens, UniProt P10827); assay: HEK293T THR alpha/RXR luciferase reporter assay (Assay 2); assay type: cell-based; conditions: for Emax: HEK-293T
T2 construct: expressed in transfected cells; host or cells: HEK293T (ATCC CRL-3216)
T2 sequence (P10827 1-410 isoform P10827-2): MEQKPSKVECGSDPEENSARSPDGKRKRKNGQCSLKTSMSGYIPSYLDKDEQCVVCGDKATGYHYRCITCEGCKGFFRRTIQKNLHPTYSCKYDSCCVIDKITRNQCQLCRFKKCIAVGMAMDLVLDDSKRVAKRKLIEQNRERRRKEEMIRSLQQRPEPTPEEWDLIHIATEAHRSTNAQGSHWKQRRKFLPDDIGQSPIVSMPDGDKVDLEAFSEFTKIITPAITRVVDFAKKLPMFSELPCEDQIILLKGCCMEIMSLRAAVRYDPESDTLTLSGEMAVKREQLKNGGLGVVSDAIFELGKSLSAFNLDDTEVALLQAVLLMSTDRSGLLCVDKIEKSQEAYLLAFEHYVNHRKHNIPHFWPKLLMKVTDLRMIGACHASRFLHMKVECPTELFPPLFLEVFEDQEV
T2 sequence (P19793 1-462 partner): T1 sequence (P19793 1-462 partner)
In short: as §1

[1] = Table 5, Assay 2, THRβ, read-out: Activity category Assay 2 THRβ (Emax)
[2] = THR-beta, HEK293T reporter assay, read-out: Activity category Assay 2 (EC50, THR-beta agonist)
[3] = Table 5, Assay 2, THRα, read-out: Activity category Assay 2 THRα (Emax)
[4] = Table 4, THR-alpha, Assay 2, read-out: Activity category Assay 2 (EC50, THR-alpha agonist activity)

| Emax (THR beta; [1]) | EC50 (THR beta; [2]) | Emax (THR alpha; [3]) | EC50 (THR alpha; [4]) | Activity category Assay 2 THRβ (Emax) (THR beta; Table 5, Assay 2, THRβ) | Activity category Assay 2 THRα (Emax) (THR alpha; Table 5, Assay 2, THRα) | EC50 (THR beta; HEK293T reporter THRbeta/RXR, read-out: EC50 β) | Emax (THR beta; HEK293T reporter THRbeta/RXR, read-out: percent in parentheses below EC50 β (percent agonism / Emax)) | EC50 (THR alpha; HEK293T reporter THRalpha/RXR, read-out: EC50 α) | Emax (THR alpha; HEK293T reporter THRalpha/RXR, read-out: percent in parentheses below EC50 α (percent agonism / Emax)) | Compound |
| --- | --- | --- | --- | --- | --- | --- | --- | --- | --- | --- |
| > 75% | < 0.05 µM | 50 to 75% | 0.05 to 0.25 µM | – | – | – | – | – | – | CC(c1cc(Oc2c(Cl)cc(-n3nc(N)c(=O)[nH]c3=O)cc2Cl)n[nH]c1=O)C1CC(F)(F)C1 (single isomer, unassigned) [Compound 61-A, 6-amino-2-[3,5-dichloro-4-([5-[1-(3,3-difluorocyclobutyl)ethyl]-6-oxo-1H-pyridazin-3-yl]oxy)phenyl]-4H-1,2,4-tri-azine-3,5-dione] |
| – | 0.25 to 1 µM | – | 0.25 to 1 µM | A (Emax≥75%) | C (Emax<50%) | – | – | – | – | CC(c1cc(Oc2c(Cl)cc(-n3nc(N)c(=O)[nH]c3=O)cc2Cl)n[nH]c1=O)C1CC(F)(F)C1 (single isomer, unassigned) [Compound 61-B, 6-amino-2-[3,5-dichloro-4-([5-[1-(3,3-difluorocyclobutyl)ethyl]-6-oxo-1H-pyridazin-3-yl]oxy)phenyl]-4H-1,2,4-tri-azine-3,5-dione] |
| > 75% | 0.05 to 0.25 µM | 50 to 75% | 0.25 to 1 µM | – | – | – | – | – | – | C[C@H]1C[C@H](c2cc(Oc3c(Cl)cc(-n4nc(N)c(=O)[nH]c4=O)cc3Cl)n[nH]c2=O)C1 (single isomer, unassigned) [Compound 86-A, 6-Amino-2-(3,5-dichloro-4-((5-((1r,3r)-3-methylcyclobutyl)-6-oxo-1,6-dihydropyridazin-3-yl)oxy)phenyl)-1,2,4-triazine-3,5(2H,4H)-dione] |
| > 75% | – | 50 to 75% | 0.25 to 1 µM | – | – | – | – | – | – | CC(c1ccccc1)c1cc(Oc2c(Cl)cc(-n3nc(N)c(=O)[nH]c3=O)cc2Cl)n[nH]c1=O (single isomer, unassigned) [Compound 164, 6-Amino-2-(3,5-dichloro-4-((6-oxo-5-(1-phenylethyl)-1,6-dihydropyridazin-3-yl)oxy)phenyl)-1,2,4-triazine-3,5(2H,4H)-dione] |
| > 75% | 0.05 to 0.25 µM | > 75% | 0.25 to 1 µM | – | – | – | – | – | – | CC(C)c1c[nH]c2ccc(Oc3c(Cl)cc(-n4nc(C#N)c(=O)[nH]c4=O)cc3Cl)cc12 [Compound 1, 2-[3,5-dichloro-4-[(3-isopropyl-1H-indol-5-yl)oxy]-phenyl]-3,5-dioxo-4H-1,2,4-tri-azine-6-carbonitrile] |
| > 75% | 0.05 to 0.25 µM | > 75% | 0.25 to 1 µM | – | – | – | – | – | – | CC(C)c1cc(Oc2c(Cl)cc(-c3nn(C)c(=O)[nH]c3=O)cc2Cl)n[nH]c1=O [Compound 16, 6-[3,5-dichloro-4-[(5-isopropyl-6-oxo-1H-pyridazin-3-yl)oxy]phenyl]-2-methyl-4H-1,2,4-triazine-3,5-dione] |
| > 75% | 1 to 10 µM | 50 to 75% | 1 to 10 µM | – | – | – | – | – | – | CC(C)c1c[nH]c2ccc(Oc3c(Cl)cc(-n4nc(C#N)c(=O)[nH]c4=O)cc3Cl)nc12 [Compound 18] |
| > 75% | 0.25 to 1 µM | > 75% | 1 to 10 µM | – | – | – | – | – | – | Cc1cc(-n2nc(C#N)c(=O)[nH]c2=O)cc(C)c1Cc1ccc2[nH]cc(C(C)C)c2n1 [Compound 31, 2-[4-[(3-isopropyl-1H-pyrrolo[3,2-b]pyridin-5-yl)methyl]-3,5-dimethyl-phenyl]-3,5-dioxo-1,2,4-triazine-6-carbonitrile] |
| – | 0.05 to 0.25 µM | – | 0.05 to 0.25 µM | A (Emax≥75%) | A (Emax≥75%) | – | – | – | – | CCC(C)c1cc(Oc2c(Cl)cc(-n3nc(N)c(=O)[nH]c3=O)cc2Cl)n[nH]c1=O (centres unmarked) [Compound 39-A] |
| – | < 0.05 µM | – | < 0.05 µM | A (Emax≥75%) | A (Emax≥75%) | – | – | – | – | CCC(C)c1cc(Oc2c(Cl)cc(-n3nc(N)c(=O)[nH]c3=O)cc2Cl)n[nH]c1=O (centres unmarked) [Compound 39-B] |
| > 75% | 0.05 to 0.25 µM | > 75% | 0.25 to 1 µM | – | – | 0.058 µM | 92% | 0.564 µM | 95% | Nc1nn(-c2cc(Cl)c(Oc3cc(C4CCC4)c(=O)[nH]n3)c(Cl)c2)c(=O)[nH]c1=O [Compound 40, 6-amino-2-[3,5-dichloro-4-[(5-cyclobutyl-6-oxo-1H-pyridazin-3-yl)oxy]phenyl]-4H-1,2,4-triazine-3,5-dione] |
| > 75% | – | > 75% | < 0.05 µM | – | – | – | – | – | – | Cc1cc(-n2nc(N)c(=O)[nH]c2=O)cc(C)c1Cc1ccc(O)c(-c2ccccc2)n1 [Compound 43, 6-amino-2-[4-[(5-hydroxy-6-phenylpyridin-2-yl)-methyl]-3,5-dimethylphenyl]-4H-1,2,4-triazine-3,5-dione] |
| > 75% | > 10 µM | 50 to 75% | > 10 µM | – | – | – | – | – | – | CC(C)c1c[nH]c2nnc(Oc3c(Cl)cc(-n4nc(C#N)c(=O)[nH]c4=O)cc3Cl)cc12 [Compound 52, 2-[3,5-dichloro-4-([5-isopropyl-7H-pyrrolo[2,3-c]pyridazin-3-yl]oxy)phenyl]-3,5-dioxo-4H-1,2,4-triazine-6-carbonitrile] |
| > 75% | < 0.05 µM | 50 to 75% | < 0.05 µM | – | – | – | – | – | – | Cc1cc(-n2ncc(=O)[nH]c2=O)cc(C)c1Cc1ccc2[nH]cc(C(C)C)c2n1 [Compound 54, 2-[4-[(3-isopropyl-1H-pyrrolo[3,2-b]pyridine-5-yl)methyl]-3,5-dimethyl-phenyl]-1,2,4-triazine-3,5-dione] |
| > 75% | < 0.05 µM | > 75% | 0.05 to 0.25 µM | – | – | – | – | – | – | Cc1cc(-n2nc(N)c(=O)[nH]c2=O)cc(C)c1Cc1ccc2[nH]cc(C(C)C)c2n1 [Compound 55, 6-amino-2-[4-[(3-isopropyl-1H-pyrrolo[3,2-b]pyridin-5-yl)methyl]-3,5-dimethyl-phenyl]-1,2,4-triazine-3,5-dione] |
| 50 to 75% | 0.05 to 0.25 µM | < 50% | > 10 µM | – | – | – | – | – | – | Nc1nn(-c2cc(Cl)c(Oc3cc(-c4ccc5ccccc5c4)c(=O)[nH]n3)c(Cl)c2)c(=O)[nH]c1=O [Compound 67, 6-amino-2-(3,5-dichloro-4-[[5-(naphthalen-2-yl)-6-oxo-1H-pyridazin-3-yl]oxy]phenyl)-4H-1,2,4-triazine-3,5-dione] |
| < 50% | – | < 50% | 1 to 10 µM | – | – | – | – | – | – | Nc1nn(-c2cc(Cl)c(Oc3n[nH]c(=O)cc3-c3ccc4ccccc4c3)c(Cl)c2)c(=O)[nH]c1=O [Compound 67-A, 6-amino-2-(3,5-dichloro-4-((4-(naphthalen-2-yl)-6-oxo-1,6-dihydropyridazin-3-yl)oxy)phenyl)-1,2,4-triazine-3,5(2H,4H)-dione] |
| > 75% | < 0.05 µM | 50 to 75% | 0.05 to 0.25 µM | – | – | – | – | – | – | Cc1cccc(-c2cc(Oc3c(Cl)cc(-n4nc(N)c(=O)[nH]c4=O)cc3Cl)n[nH]c2=O)c1 [Compound 70, 6-Amino-2-(3,5-dichloro-4-((6-oxo-5-(m-tolyl)-1,6-dihydropyridazin-3-yl)oxy)phenyl)-1,2,4-triazine-3,5(2H,4H)-dione] |
| 50 to 75% | 0.05 to 0.25 µM | < 50% | > 10 µM | – | – | – | – | – | – | Nc1nn(-c2cc(Cl)c(Oc3cc(-c4ccc5c(c4)CCCC5)c(=O)[nH]n3)c(Cl)c2)c(=O)[nH]c1=O [Compound 72, 6-Amino-2-(3,5-dichloro-4-((6-oxo-5-(5,6,7,8-tetrahydro-naphthalen-2-yl)-1,6-dihydro-pyridazin-3-yl)oxy)phenyl)-1,2,4-triazine-3,5(2H,4H)-dione] |
